Laboratory results as given in US9040545B2, “Heterocyclyl pyrazolopyrimidine analogues as selective JAK inhibitors” (Cellzome Limited, priority 2010, dated 2015).

How the values were obtained:
JAK2 = molecular target: T1, JAK2 (Homo sapiens, UniProt O60674); experiment: Kinobeads assay, JAK2; assay type: binding; conditions: mixed Molt4/Ramos lysate, read-out: Inhibition values (IC50) JAK2
T1 construct: endogenous in cells; host or cells: mixed Molt4/Ramos lysate (1:2)
Method: (§1) The compounds of the present invention as described in the previous examples were tested in a Kinobeads™ assay as described for ZAP-70 (WO-A 2007/137867). Briefly, test compounds (at various concentrations) and the affinity matrix with the immobilized aminopyrido-pyrimidine ligand 24 were added to cell lysate aliquots and allowed to bind to the proteins in the lysate sample. After the incubation time the beads with captured proteins were separated from the lysate. Bound proteins were then eluted and the presence of JAK2 and JAK3 was detected and quantified using specific antibodies in a dot blot procedure and the Odyssey infrared detection system. Dose response curves for individual kinases were generated and IC50 values calculated. Kinobeads™ assays for ZAP-70 (WO-A 2007/137867) and for kinase selectivity profiling (WO-A 2006/134056) have been previously described.
(§2) The affinity matrix was washed two times with 15 mL of 1×DP buffer containing 0.2% NP40 (IGEPAL® CA-630, Sigma, #I3021) and then resuspended in 1×DP buffer containing 0.2% NP40 (3% beads slurry).
(§3) 5×DP buffer 250 mM Tris-HCl pH 7.4, 25% Glycerol, 7.5 mM MgCl2, 750 mM NaCl, 5 mM Na3VO4; filter the 5×DP buffer through a 0.22 μm filter and store in aliquots at −80° C. The 5×DP buffer is diluted with H2O to 1×DP buffer containing 1 mM DTT and 25 mM NaF.
(§4) Stock solutions of test compounds were prepared in DMSO. In a 96 well plate 30 μL solution of diluted test compounds at 5 mM in DMSO were prepared. Starting with this solution a 1:3 dilution series (9 steps) was prepared. For control experiments (no test compound) a buffer containing 2% DMSO was used.
Molt4 cells (ATCC catalogue number CRL-1582) and Ramos cells (ATCC catalogue number CRL-1596) were grown in 1 L Spinner flasks (Integra Biosciences, #182101) in suspension in RPMI 1640 medium (Invitrogen, #21875-034) supplemented with 10% Fetal Bovine Serum (Invitrogen) at a density between 0.15×106 and 1.2×10^6 cells/mL. Cells were harvested by centrifugation, washed once with 1×PBS buffer (Invitrogen, #14190-094) and cell pellets were frozen in liquid nitrogen and subsequently stored at −80° C. Cells were homogenized in a Potter S homogenizer in lysis buffer: 50 mM Tris-HCl, 0.8% NP40, 5% glycerol, 150 mM NaCl, 1.5 mM MgCl2, 25 mM NaF, 1 mM sodium vanadate, 1 mM DTT, pH 7.5. One complete EDTA-free tablet (protease inhibitor cocktail, Roche Diagnostics, 1873580) per 25 mL buffer was added. The material was dounced 10 times using a mechanized POTTER S, transferred to 50 mL falcon tubes, incubated for 30 minutes on ice and spun down for 10 minutes at 20,000 g at 4° C. (10,000 rpm in Sorvall SLA600, precooled). The supernatant was transferred to an ultracentrifuge (UZ)-polycarbonate tube (Beckmann, 355654) and spun for 1 hour at 100,000 g at 4° C. (33.500 rpm in Ti50.2, precooled). The supernatant was transferred again to a fresh 50 mL falcon tube, the protein concentration was determined by a Bradford assay (BioRad) and samples containing 50 mg of protein per aliquot were prepared. The samples were immediately used for experiments or frozen in liquid nitrogen and stored frozen at −80° C.
(§5) Cell lysate (approximately 50 mg protein per plate) was thawed in a water bath at room temperature and then stored on ice. To the thawed cell lysate 1×DP 0.8% NP40 buffer containing protease inhibitors (1 tablet for 25 mL buffer; EDTA-free protease inhibitor cocktail; Roche Diagnostics 1873580) was added in order to reach a final protein concentration of 10 mg/mL total protein. The diluted cell lysate was stored on ice. Mixed Molt4/Ramos lysate was prepared by combining one volume of Molt4 lysate and two volumes of Ramos lysate (ratio 1:2).
To a 96 well filter plate (Multiscreen HTS, BV Filter Plates, Millipore #MSBVN1250) were added per well: 100 μL affinity matrix (3% beads slurry), 3 μL of compound solution, and 50 μL of diluted lysate. […]

Aurora B = molecular target: T2, Aurora B (Homo sapiens, UniProt Q96GD4); experiment: Kinobeads assay, Aurora B; assay type: binding; conditions: for IC50: lysate of pervanadate-treated Jurkat cells, read-out: Inhibition values (IC50) Aur B
T2 construct: cell lysates from Jurkat cells (ATCC TIB-152) used; endogenous in cells; host or cells: Jurkat cells (ATCC TIB-152), treated with pervanadate
Method: as §1, §2, §3, §4, §5
To a 96 well filter plate (Multiscreen HTS, BV Filter Plates, Millipore #MSBVN1250) were added per well: 100 μL affinity matrix (3% beads slurry), 3 μL of compound solution, and 50 μL of diluted lysate. Plates were sealed and incubated for 3 hours in a cold room on a plate shaker (Heidolph tiramax 1000) at 750 rpm. Afterwards the plate was washed 3 times with 230 μL washing buffer (1×DP 0.4% NP40). The filter plate was placed on top of a collection 1 plate (Greiner bio-one, PP-microplate 96 well V-shape, 65120) and the beads were then eluted with 20 μL of sample buffer (100 mM Tris, pH 7.4, 4% SDS, 0.00025% bromophenol blue, 20% glycerol, 50 mM DTT). The eluate was frozen quickly at −80° C. and stored at −20° C.
The kinases in the eluates were detected and quantified by spotting on nitrocellulose membranes and using a first antibody directed against the kinase of interest and a fluorescently labelled secondary antibody (anti-rabbit IRDye™ antibody 800 (Licor, #926-32211). The Odyssey Infrared Imaging system from LI-COR Biosciences (Lincoln, Nebr., USA) was operated according to instructions provided by the manufacturer (Schutz-Geschwendener et al, 2004. Quantitative, two-color Western blot detection with infrared fluorescence. Published May 2004 by LI-COR Biosciences, www.licor.com).
After spotting of the eluates the nitrocellulose membrane (BioTrace NT; PALL, #BTNT30R) was first blocked by incubation with Odyssey blocking buffer (LICOR, 927-40000) for 1 hour at room temperature. Blocked membranes were then incubated for 16 hours at the temperature shown in Table 5 with the first antibody diluted in Odyssey blocking buffer (LICOR #927-40000). Afterwards the membrane was washed twice for 10 minutes with PBS buffer containing 0.2% Tween 20 at room temperature. […]

T1 sequence (O60674 whole entry): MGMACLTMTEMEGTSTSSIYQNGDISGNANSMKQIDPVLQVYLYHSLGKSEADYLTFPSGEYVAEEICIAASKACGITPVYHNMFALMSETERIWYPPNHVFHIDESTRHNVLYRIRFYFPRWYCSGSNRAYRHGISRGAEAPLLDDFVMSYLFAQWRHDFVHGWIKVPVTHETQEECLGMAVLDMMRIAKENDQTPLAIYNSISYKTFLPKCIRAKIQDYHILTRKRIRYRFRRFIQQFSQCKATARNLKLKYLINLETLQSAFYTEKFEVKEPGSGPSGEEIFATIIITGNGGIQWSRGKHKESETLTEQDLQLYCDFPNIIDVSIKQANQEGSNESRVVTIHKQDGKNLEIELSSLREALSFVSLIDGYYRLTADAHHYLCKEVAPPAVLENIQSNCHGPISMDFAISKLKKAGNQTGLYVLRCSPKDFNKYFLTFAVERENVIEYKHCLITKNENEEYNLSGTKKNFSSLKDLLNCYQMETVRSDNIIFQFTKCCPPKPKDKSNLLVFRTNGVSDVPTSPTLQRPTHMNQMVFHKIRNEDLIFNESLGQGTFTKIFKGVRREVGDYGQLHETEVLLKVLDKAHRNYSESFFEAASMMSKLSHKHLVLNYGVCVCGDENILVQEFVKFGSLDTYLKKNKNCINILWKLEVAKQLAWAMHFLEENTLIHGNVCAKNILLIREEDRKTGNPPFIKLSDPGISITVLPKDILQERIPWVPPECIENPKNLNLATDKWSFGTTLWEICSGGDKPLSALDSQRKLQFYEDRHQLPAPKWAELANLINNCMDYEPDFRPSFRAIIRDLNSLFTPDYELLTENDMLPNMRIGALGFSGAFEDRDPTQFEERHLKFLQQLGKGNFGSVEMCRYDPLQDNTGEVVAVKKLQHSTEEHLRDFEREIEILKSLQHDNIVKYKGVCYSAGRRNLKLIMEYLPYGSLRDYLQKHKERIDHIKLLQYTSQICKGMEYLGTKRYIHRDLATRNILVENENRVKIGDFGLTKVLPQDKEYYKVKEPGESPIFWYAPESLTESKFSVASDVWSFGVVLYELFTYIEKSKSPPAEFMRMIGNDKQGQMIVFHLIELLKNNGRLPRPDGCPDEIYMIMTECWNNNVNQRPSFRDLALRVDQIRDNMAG
T2 sequence (Q96GD4 whole entry): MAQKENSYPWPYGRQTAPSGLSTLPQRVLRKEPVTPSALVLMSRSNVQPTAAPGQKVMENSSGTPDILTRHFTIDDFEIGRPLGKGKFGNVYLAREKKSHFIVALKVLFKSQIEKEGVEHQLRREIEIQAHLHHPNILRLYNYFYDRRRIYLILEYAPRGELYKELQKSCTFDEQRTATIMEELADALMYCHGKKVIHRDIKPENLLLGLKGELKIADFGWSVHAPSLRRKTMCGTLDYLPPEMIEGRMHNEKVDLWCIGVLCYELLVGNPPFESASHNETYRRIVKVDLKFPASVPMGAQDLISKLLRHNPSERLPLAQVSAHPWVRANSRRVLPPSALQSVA

Structure (SMILES)	IC50 (JAK2)	JAK3/AurB Fold Selectivity (Aurora B)	IC50 (Aurora B)
Cn1cc(Nc2ncc3cnn(Cc4cccc(-c5cnn(CC(N)=O)c5)c4)c3n2)cn1 [Example 120, 2-(4-(3-((6-((1-methyl-1H-pyrazol-4-yl)amino)-1H-pyrazolo[3,4-d]pyrimidin-1-yl)methyl)phenyl)-1H-pyrazol-1-yl)acetamide]	1000 to 10000 nM	>50 Fold	1000 to 10000 nM
Cn1cc(Nc2ncc3cnn(Cc4cccc(-c5cnn(C)c5)c4)c3n2)cn1 [Example 115, N-(1-methyl-1H-pyrazol-4-yl)-1-(3-(1-methyl-1H-pyrazol-4-yl)benzyl)-1H-pyrazolo[3,4-d]pyrimidin-6-amine]	1000 to 10000 nM	>50 Fold	1000 to 10000 nM
O=C(Cn1cc(Nc2ncc3cnn(Cc4cc(F)cc(N5CCOCC5=O)c4)c3n2)cn1)N1CCNCC1 [Example 109, 4-(3-fluoro-5-((6-((1-(2-oxo-2-(piperazin-1-yl)ethyl)-1H-pyrazol-4-yl)amino)-1H-pyrazolo[3,4-d]pyrimidin-1-yl)methyl)phenyl)morpholin-3-one]	1000 to 10000 nM	10-50 Fold	100 to 1000 nM
O=C1COCCN1c1cc(F)cc(Cn2ncc3cnc(Nc4cnn(CC5CCNC5)c4)nc32)c1 (stereo not drawn) [Example 101, 4-(3-fluoro-5-((6-((1-(pyrrolidin-3-ylmethyl)-1H-pyrazol-4-yl)amino)-1H-pyrazolo[3,4-d]pyrimidin-1-yl)methyl)phenyl)morpholin-3-one]	1000 to 10000 nM	10-50 Fold	100 to 1000 nM
OCCn1cc(Nc2ncc3cnn(Cc4cc(F)cc(N5CCNCC5)c4)c3n2)cn1 [Example 93, 2-(4-((1-(3-fluoro-5-(piperazin-1-yl)benzyl)-1H-pyrazolo[3,4-d]pyrimidin-6-yl)amino)-1H-pyrazol-1-yl)ethanol]	1000 to 10000 nM	10-50 Fold	100 to 1000 nM
Cn1cc(Nc2ncc3cnn(Cc4cccc(N5CCOCC5=O)c4F)c3n2)cn1 [Example 40, 4-(2-Fluoro-3-((6-((1-methyl-1H-pyrazol-4-yl)amino)-1H-pyrazolo[3,4-d]pyrimidin-1-yl)methyl)phenyl)morpholin-3-one]	1000 to 10000 nM	10-50 Fold	100 to 1000 nM
Cn1cc(Nc2ncc3cnn(Cc4cc(F)cc(N5CCNCC5)c4)c3n2)cn1 [Example 92, 1-(3-fluoro-5-(piperazin-1-yl)benzyl)-N-(1-methyl-1H-pyrazol-4-yl)-1H-pyrazolo[3,4-d]pyrimidin-6-amine]	1000 to 10000 nM	>50 Fold	100 to 1000 nM
O=C1CC(Cn2cc(Nc3ncc4cnn(Cc5cc(F)cc(N6CCOCC6=O)c5)c4n3)cn2)CN1 (stereo not drawn) [Example 105, 4-(3-fluoro-5-((6-((1-((5-oxopyrrolidin-3-yl)methyl)-1H-pyrazol-4-yl)amino)-1H-pyrazolo[3,4-d]pyrimidin-1-yl)methyl)phenyl)morpholin-3-one]	1000 to 10000 nM	>50 Fold	100 to 1000 nM
Fc1cc(N2CCOCC2)c(F)c(Cn2ncc3cnc(Nc4cnn(CC5CCNC5)c4)nc32)c1F (stereo not drawn) [Example 94, N-(1-(pyrrolidin-3-ylmethyl)-1H-pyrazol-4-yl)-1-(2,3,6-trifluoro-5-morpholinobenzyl)-1H-pyrazolo[3,4-d]pyrimidin-6-amine]	1000 to 10000 nM	>50 Fold	1000 to 10000 nM

Further lines, results first:

IC50 (JAK2)	JAK3/AurB Fold Selectivity (Aurora B)	IC50 (Aurora B)	Structure (SMILES)
≥ 10000 nM	>50 Fold	100 to 1000 nM	CN(C)CCCn1cc(Nc2ncc3cnn(Cc4cccc(N5CCOCC5=O)c4)c3n2)cn1 [Example 28, 4-(3-((6-((1-(3-(Dimethylamino)propyl)-1H-pyrazol-4-yl)amino)-1H-pyrazolo[3,4-d]pyrimidin-1-yl)methyl)phenyl)morpholin-3-one]
1000 to 10000 nM	>50 Fold	1000 to 10000 nM	Cn1cc(Nc2ncc3cnn(Cc4cccc(N5CCOCC5)c4F)c3n2)cn1 [Example 21, 1-(2-Fluoro-3-morpholinobenzyl)-N-(1-methyl-1H-pyrazol-4-yl)-1H-pyrazolo[3,4-d]pyrimidin-6-amine]
1000 to 10000 nM	>50 Fold	1000 to 10000 nM	Cn1cc(Nc2ncc3cnn(Cc4cccc(N5CCOCC5)c4)c3n2)cn1 [Example 2, N-(1-Methyl-1H-pyrazol-4-yl)-1-(3-morpholinobenzyl)-1H-pyrazolo[3,4-d]pyrimidin-6-amine]
≥ 10000 nM	>50 Fold	1000 to 10000 nM	C[C@H]1COCCN1c1cccc(Cn2ncc3cnc(Nc4cnn(C)c4)nc32)c1 [Example 112, (S)-N-(1-methyl-1H-pyrazol-4-yl)-1-(3-(3-methylmorpholino)benzyl)-1H-pyrazolo[3,4-d]pyrimidin-6-amine]
≥ 10000 nM	>50 Fold	1000 to 10000 nM	Cn1cc(Nc2ncc3cnn(Cc4cccc(C(=O)N5CCOCC5)c4)c3n2)cn1 [Example 6, (3-((6-((1-Methyl-1H-pyrazol-4-yl)amino)-1H-pyrazolo[3,4-d]pyrimidin-1-yl)methyl)phenyl)(morpholino)methanone]
≥ 10000 nM	10-50 Fold	1000 to 10000 nM	CN(C)CC(O)Cn1cc(Nc2ncc3cnn(Cc4cccc(N5CCOCC5)c4)c3n2)cn1 (stereo not drawn) [Example 33, 1-(Dimethylamino)-3-(4-((1-(3-morpholinobenzyl)-1H-pyrazolo[3,4-d]pyrimidin-6-yl)amino)-1H-pyrazol-1-yl)propan-2-ol]
≥ 10000 nM	10-50 Fold	100 to 1000 nM	O=C1COCCN1c1cccc(Cn2ncc3cnc(Nc4cnn(CCO)c4)nc32)c1 [Example 29, 4-(3-((6-((1-(2-Hydroxyethyl)-1H-pyrazol-4-yl)amino)-1H-pyrazolo[3,4-d]pyrimidin-1-yl)methyl)phenyl)morpholin-3-one]
